Read-outs that look alike come from different tables or passages of the source.
System: HBV rcDNA in HepDE19 cells
Assay: HepDE19 assay with bDNA quantitation of HBV rcDNA
Format: cell-based, hepatitis B virus (HBV)
Settings: inhibition of rcDNA formation in HepDE19 cells (HepG2 derived), Tet-free medium, 7 day incubation, Quantigene 2.0 bDNA readout, top concentration 25 μM, read-out: DE-19bDNA EC50
Method in brief: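 HepDE19 cells (HepG2-derived, Tet-regulated HBV) switched to Tet-free medium, then treated 7 days at 37 °C with compound, 8-point titration from 25 μM, 0.5% DMSO. rcDNA quantified by bDNA with HBV probes; EC50/EC90 via 4-parameter fit. Viability (CC50) by CellTiter-Glo ATP on 5,000 cells/well after 4 days.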

[1] = Hepatitis B virus, HepDE19, 168 h

| Structure (SMILES) | EC50 [1] | EC50 |
| --- | --- | --- |
| CC(C)CN(C(=O)Nc1ccc(F)c(Cl)c1)C1COCc2[nH]c(=O)c3ccccc3c21 (centres unmarked) [Compound 30, 3-(3-Chloro-4-fluorophenyl)-1-isobutyl-1-(6-oxo-1,4,5,6-tetrahydro-2H-pyrano[3,4-c]isoquinolin-1-yl)urea] | 20 nM |  |
| CN(C(=O)Nc1ccc(F)c(Cl)c1)C1CCCc2c1c1ccccc1c(=O)n2C (centres unmarked) [Compound 31, 3-(3-Chloro-4-fluorophenyl)-1-methyl-1-(5-methyl-6-oxo-1,2,3,4,5,6-hexahydrophenanthridin-1-yl)urea] | 260 nM |  |
| CN(C(=O)Nc1ccc(F)c(F)c1)C1CCCc2[nH]c(=O)c3cc(F)ccc3c21 (centres unmarked) [Compound 32, 3-(3,4-Difluorophenyl)-1-(8-fluoro-6-oxo-1,2,3,4,5,6-hexahydrophenanthridin-1-yl)-1-methylurea] | 110 nM |  |
| CN(C(=O)Nc1cc(F)c(F)c(F)c1)C1CCCc2[nH]c(=O)c3cc(F)ccc3c21 (centres unmarked) [Compound 33, 1-(8-Fluoro-6-oxo-1,2,3,4,5,6-hexahydrophenanthridin-1-yl)-1-methyl-3-(3,4,5-trifluorophenyl)urea] | 100 nM |  |
| COc1nc2c(c3ccccc13)C(N(C)C(=O)Nc1ccc(F)c(Cl)c1)CCC2 (centres unmarked) [Compound 34, 3-(3-Chloro-4-fluorophenyl)-1-(6-methoxy-1,2,3,4-tetrahydrophenanthridin-1-yl)-1-methylurea] | 1800 nM |  |
| CN(C(=O)Nc1ccc(F)c(Cl)c1)C1COCc2[nH]c(=O)c3c(F)c(F)ccc3c21 (centres unmarked) [Compound 35, 3-(3-Chloro-4-fluorophenyl)-1-(7,8-difluoro-6-oxo-1,4,5,6-tetrahydro-2H-pyrano[3,4-c]isoquinolin-1-yl)-1-methylurea] | 190 nM |  |
| CN(C(=O)Nc1ccc(F)c(Cl)c1)C1CCCc2[nH]c(=O)c3cc(F)c(F)cc3c21 (centres unmarked) [Compound 38, 3-(3-Chloro-4-fluorophenyl)-1-(8,9-difluoro-6-oxo-1,2,3,4,5,6-hexahydrophenanthridin-1-yl)-1-methylurea] |  | 1000 nM |
| CN(C(=O)Nc1ccc(F)c(Cl)c1)C1CCCc2[nH]c(=O)c3cc(F)c(F)cc3c21 (centres unmarked) [Compound 39, 3-(3-Chloro-4-fluorophenyl)-1-(8,9-difluoro-6-oxo-1,2,3,4,5,6-hexahydrophenanthridin-1-yl)-1-methylurea] |  | 10 nM |
| CC(C)CN(C(=O)Nc1ccc(F)c(Cl)c1)C1COCc2[nH]c(=O)c3cc(F)ccc3c21 (centres unmarked) [Compound 43, 3-(3-Chloro-4-fluorophenyl)-1-(8-fluoro-6-oxo-1,4,5,6-tetrahydro-2H-pyrano[3,4-c]isoquinolin-1-yl)-1-isobutylurea] | 10 nM |  |
| CCN(C(=O)Nc1ccc(F)c(Cl)c1)C1COCc2[nH]c(=O)c3cc(F)ccc3c21 (centres unmarked) [Compound 44, 3-(3-Chloro-4-fluorophenyl)-1-ethyl-1-(8-fluoro-6-oxo-1,4,5,6-tetrahydro-2H-pyrano[3,4-c]isoquinolin-1-yl)urea] | 10 nM |  |
| CN(C(=O)Nc1ccc(F)c(Cl)c1)C1COCc2[nH]c(=O)c3cc(Cl)ccc3c21 (centres unmarked) [Compound 55, 3-(3-Chloro-4-fluorophenyl)-1-(8-chloro-6-oxo-1,4,5,6-tetrahydro-2H-pyrano[3,4-c]isoquinolin-1-yl)-1-methylurea] | 50 nM |  |
| CCN(C(=O)Nc1ccc(F)c(Cl)c1)C1COCc2[nH]c(=O)c3cc(Cl)ccc3c21 (centres unmarked) [Compound 56, 3-(3-Chloro-4-fluorophenyl)-1-(8-chloro-6-oxo-1,4,5,6-tetrahydro-2H-pyrano[3,4-c]isoquinolin-1-yl)-1-ethylurea] | 50 nM |  |
| Cc1cc(NC(=O)N(C)C2COCc3[nH]c(=O)c4cc(F)ccc4c32)ccc1F (centres unmarked) [Compound 57, 3-(4-Fluoro-3-methylphenyl)-1-(8-fluoro-6-oxo-1,4,5,6-tetrahydro-2H-pyrano[3,4-c]isoquinolin-1-yl)-1-methylurea] | 10 nM |  |
| Cc1cc(NC(=O)N(C)C2COCc3[nH]c(=O)c4cc(Cl)ccc4c32)ccc1F (centres unmarked) [Compound 58, 1-(8-Chloro-6-oxo-1,4,5,6-tetrahydro-2H-pyrano[3,4-c]isoquinolin-1-yl)-3-(4-fluoro-3-methylphenyl)-1-methylurea] | 40 nM |  |
| CCN(C(=O)Nc1ccc(F)c(C)c1)C1COCc2[nH]c(=O)c3cc(Cl)ccc3c21 (centres unmarked) [Compound 59, 1-(8-Chloro-6-oxo-1,4,5,6-tetrahydro-2H-pyrano[3,4-c]isoquinolin-1-yl)-1-ethyl-3-(4-fluoro-3-methylphenyl)urea] | 20 nM |  |
| CN(C(=O)Nc1ccc(F)c(C#N)c1)C1COCc2[nH]c(=O)c3cc(Cl)ccc3c21 (centres unmarked) [Compound 65, 1-(8-Chloro-6-oxo-1,4,5,6-tetrahydro-2H-pyrano[3,4-c]isoquinolin-1-yl)-3-(3-cyano-4-fluorophenyl)-1-methylurea] | 80 nM |  |

| Structure (SMILES) | EC50 [1] | EC50 |
| --- | --- | --- |
| CCN(C(=O)Nc1ccc(F)c(C#N)c1)C1COCc2[nH]c(=O)c3cc(Cl)ccc3c21 (centres unmarked) [Compound 66, 1-(8-Chloro-6-oxo-1,4,5,6-tetrahydro-2H-pyrano[3,4-c]isoquinolin-1-yl)-3-(3-cyano-4-fluorophenyl)-1-ethylurea] | 50 nM |  |
| CN(C(=O)Nc1ccc(F)c(Cl)c1)C1COCc2[nH]c(=O)c3ccc(F)cc3c21 (centres unmarked) [Compound 73, 3-(3-Chloro-4-fluorophenyl)-1-(9-fluoro-6-oxo-1,4,5,6-tetrahydro-2H-pyrano[3,4-c]isoquinolin-1-yl)-1-methylurea] | 20 nM |  |
| CCN(C(=O)Nc1ccc(F)c(Cl)c1)C1COCc2[nH]c(=O)c3ccc(F)cc3c21 (centres unmarked) [Compound 74, 3-(3-Chloro-4-fluorophenyl)-1-ethyl-1-(9-fluoro-6-oxo-1,4,5,6-tetrahydro-2H-pyrano[3,4-c]isoquinolin-1-yl)urea] | 20 nM |  |
| Cc1cc(NC(=O)N(C)C2COCc3[nH]c(=O)c4ccc(F)cc4c32)ccc1F (centres unmarked) [Compound 75, 3-(4-Fluoro-3-methylphenyl)-1-(9-fluoro-6-oxo-1,4,5,6-tetrahydro-2H-pyrano[3,4-c]isoquinolin-1-yl)-1-methylurea] | 20 nM |  |
| CCN(C(=O)Nc1ccc(F)c(C)c1)C1COCc2[nH]c(=O)c3ccc(F)cc3c21 (centres unmarked) [Compound 76, 1-Ethyl-3-(4-fluoro-3-methylphenyl)-1-(9-fluoro-6-oxo-1,4,5,6-tetrahydro-2H-pyrano[3,4-c]isoquinolin-1-yl)urea] | 10 nM |  |
| CN(C(=O)Nc1ccc(F)c(C#N)c1)C1COCc2[nH]c(=O)c3ccc(F)cc3c21 (centres unmarked) [Compound 77, 3-(3-Cyano-4-fluorophenyl)-1-(9-fluoro-6-oxo-1,4,5,6-tetrahydro-2H-pyrano[3,4-c]isoquinolin-1-yl)-1-methylurea] | 50 nM |  |
| CCN(C(=O)Nc1ccc(F)c(C#N)c1)C1COCc2[nH]c(=O)c3ccc(F)cc3c21 (centres unmarked) [Compound 78, 3-(3-Cyano-4-fluorophenyl)-1-ethyl-1-(9-fluoro-6-oxo-1,4,5,6-tetrahydro-2H-pyrano[3,4-c]isoquinolin-1-yl)urea] | 40 nM |  |
| CN(C(=O)Nc1ccc(F)c(Cl)c1)C1CCCc2[nH]c(=O)c3c(c21)COCC3 (centres unmarked) [Compound 80, 3-(3-Chloro-4-fluorophenyl)-1-methyl-1-(5-oxo-3,4,5,6,7,8,9,10-octahydro-1H-pyrano[4,3-c]quinolin-10-yl)urea] | 2800 nM |  |
| CN(C(=O)Nc1ccc(F)c(Cl)c1)C1COCc2[nH]c(=O)c3cc(C#N)ccc3c21 (centres unmarked) [Compound 89, 3-(3-Chloro-4-fluorophenyl)-1-(8-cyano-6-oxo-1,4,5,6-tetrahydro-2H-pyrano[3,4-c]isoquinolin-1-yl)-1-methylurea] | 1100 nM |  |
| CCN(C(=O)Nc1ccc(F)c(Cl)c1)C1COCc2[nH]c(=O)c3cc(C#N)ccc3c21 (centres unmarked) [Compound 90, 3-(3-Chloro-4-fluorophenyl)-1-(8-cyano-6-oxo-1,4,5,6-tetrahydro-2H-pyrano[3,4-c]isoquinolin-1-yl)-1-ethylurea] | 360 nM |  |
| CN(C(=O)Nc1ccc(F)c(Cl)c1)C1COCc2[nH]c(=O)c3sccc3c21 (centres unmarked) [Compound 95, 3-(3-Chloro-4-fluorophenyl)-1-methyl-1-(6-oxo-1,4,5,6-tetrahydro-2H-pyrano[3,4-b]thieno[3,2-d]pyridin-1-yl)urea] | 30 nM |  |
| CN(C(=O)Nc1ccc(F)c(Cl)c1)C1COCc2[nH]c(=O)c3ccsc3c21 (centres unmarked) [Compound 96, 3-(3-chloro-4-fluorophenyl)-1-methyl-1-(4-oxo-4,6,8,9-tetrahydro-5H-pyrano[3,4-b]thieno[2,3-d]pyridin-9-yl)urea] | 80 nM |  |
| CN(C(=O)Nc1ccc(F)c(Cl)c1)C1COCc2[nH]c(=O)c3cscc3c21 (centres unmarked) [Compound 105, 3-(3-Chloro-4-fluorophenyl)-1-methyl-1-(4-oxo-4,5,8,9-tetrahydro-6H-pyrano[3,4-b]thieno[3,4-d]pyridin-9-yl)urea] | 20 nM |  |
| CN(C(=O)Nc1ccc(F)c(C(F)F)c1)C1COCc2[nH]c(=O)c3cc(F)ccc3c21 (centres unmarked) [Compound 124, 3-(3-(Difluoromethyl)-4-fluorophenyl)-1-(8-fluoro-6-oxo-1,4,5,6-tetrahydro-2H-pyrano[3,4-c]isoquinolin-1-yl)-1-methylurea] | 10 nM |  |
| CN(C(=O)Nc1ccc(Cl)c(F)c1)[C@@H]1COCc2[nH]c(=O)c3cc(F)c(F)cc3c21 [Compound 141, (S)-3-(4-Chloro-3-fluorophenyl)-1-(8,9-difluoro-6-oxo-1,4,5,6-tetrahydro-2H-pyrano[3,4-c]isoquinolin-1-yl)-1-methylurea] | 20 nM |  |
| CN(C(=O)Nc1ccc(Cl)c(C#N)c1)[C@@H]1COCc2[nH]c(=O)c3cc(F)c(F)cc3c21 [Compound 142, (S)-3-(4-Chloro-3-cyanophenyl)-1-(8,9-difluoro-6-oxo-1,4,5,6-tetrahydro-2H-pyrano[3,4-c]isoquinolin-1-yl)-1-methylurea] | 30 nM |  |

From patent US20230108906A1, “SUBSTITUTED BICYCLIC AND TRICYCLIC UREAS AND AMIDES, ANALOGUES THEREOF, AND METHODS USING SAME” (Arbutus Biopharma Corporation, priority 2019, published 2023)
